{"source": "patent US6424857B1", "about": "“Use of acousto-optical and sonoluminescene contrast agents” (Amersham Health AS, priority 1997, dated 2002)", "experiment": "Solubility in water and sesame oil"}
{"compound": "Oc1ccc2ccccc2c1N=Nc1ccc(N=Nc2ccccc2)cc1", "note": "[Sudan III]", "values": [{"measurement": "solubility in sesame oil", "setting": "sesame oil", "value": "soluble"}, {"measurement": "solubility in water", "setting": "water", "value": "very water insoluble"}]}
